This note sets out measurements from BindingDB's records for doi:10.1021/jm3015052.

As usually defined, the IC50 is the concentration that gives 50% inhibition.

Sequence of Acetylcholinesterase (P22303 whole entry): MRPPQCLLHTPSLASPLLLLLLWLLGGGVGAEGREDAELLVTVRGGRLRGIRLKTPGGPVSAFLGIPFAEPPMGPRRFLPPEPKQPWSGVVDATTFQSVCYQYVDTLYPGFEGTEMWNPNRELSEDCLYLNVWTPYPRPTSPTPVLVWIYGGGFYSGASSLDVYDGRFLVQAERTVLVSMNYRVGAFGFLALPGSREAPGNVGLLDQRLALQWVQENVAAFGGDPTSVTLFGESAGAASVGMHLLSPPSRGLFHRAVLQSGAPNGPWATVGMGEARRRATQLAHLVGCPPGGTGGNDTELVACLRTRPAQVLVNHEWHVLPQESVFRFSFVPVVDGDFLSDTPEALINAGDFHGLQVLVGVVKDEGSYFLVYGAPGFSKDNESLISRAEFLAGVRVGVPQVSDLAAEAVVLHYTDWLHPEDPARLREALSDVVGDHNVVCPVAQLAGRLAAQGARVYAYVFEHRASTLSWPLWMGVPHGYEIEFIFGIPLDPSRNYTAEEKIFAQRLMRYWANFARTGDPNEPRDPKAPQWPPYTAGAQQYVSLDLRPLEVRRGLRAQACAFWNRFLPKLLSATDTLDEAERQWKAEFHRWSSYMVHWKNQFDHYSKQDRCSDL

The first test concerns the target Acetylcholinesterase (Homo sapiens, UniProt P22303). The test is described as follows: Inhibition of AChE (unknown origin).
`COc1cc(/C=C2\Oc3cc(OCCN4CCCCC4)ccc3C2=O)cc(OC)c1OC` registered an IC50 of 0.422 µM.

In turn, `COc1cc(/C=C2\Oc3cc(OCCN4CCCC4)ccc3C2=O)cc(OC)c1OC` showed an IC50 of 0.643 µM.

Compound `COc1ccc(/C=C2\Oc3cc(OCCN4CCCCC4)ccc3C2=O)cc1` yielded an IC50 of 0.845 µM.

On to `COc1ccc2c(c1)O/C(=C\c1ccc(OCCN3CCCCC3)c(Cl)c1)C2=O`, for which the IC50 was 0.16 µM.

`O=C1/C(=C/c2ccc(OCCN3CCCCC3)cc2)Oc2ccccc21` displayed an IC50 of 0.348 µM.

On to `O=C1/C(=C/c2ccc(OCCN3CCCC3)cc2)Oc2ccccc21`, for which half-maximal inhibition (IC50) required 0.545 µM.

As for `CCOc1ccc2c(c1)O/C(=C\c1ccc(OCCN3CCCCC3)cc1)C2=O`, the IC50 worked out at 0.045 µM.

The target in the next test is T1, Diacylglycerol O-acyltransferase 1 (Homo sapiens, UniProt O75907).
T1 sequence (O75907 whole entry): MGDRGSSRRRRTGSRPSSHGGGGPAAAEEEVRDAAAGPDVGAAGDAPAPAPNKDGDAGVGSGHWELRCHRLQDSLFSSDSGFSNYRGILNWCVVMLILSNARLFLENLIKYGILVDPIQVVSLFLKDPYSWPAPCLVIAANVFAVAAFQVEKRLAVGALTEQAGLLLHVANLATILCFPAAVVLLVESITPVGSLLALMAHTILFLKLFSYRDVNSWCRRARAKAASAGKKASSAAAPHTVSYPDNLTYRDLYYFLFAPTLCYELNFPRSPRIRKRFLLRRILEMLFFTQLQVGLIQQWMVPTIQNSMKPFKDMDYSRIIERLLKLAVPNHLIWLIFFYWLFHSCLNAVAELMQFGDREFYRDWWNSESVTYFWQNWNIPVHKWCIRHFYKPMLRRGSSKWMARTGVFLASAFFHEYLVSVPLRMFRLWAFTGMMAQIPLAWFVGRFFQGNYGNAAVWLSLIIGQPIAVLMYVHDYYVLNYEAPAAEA
The test is described as follows: Inhibition of DGAT1 (unknown origin).
With `CC(C)=CCc1c(O)ccc2c1O/C(=C\c1ccc(O)cc1)C2=O`, the IC50 worked out at 35.2 µM.

The target of a further test is T2, Tyrosine-protein phosphatase non-receptor type 1 (Homo sapiens, UniProt P18031).
T2 sequence (P18031 whole entry): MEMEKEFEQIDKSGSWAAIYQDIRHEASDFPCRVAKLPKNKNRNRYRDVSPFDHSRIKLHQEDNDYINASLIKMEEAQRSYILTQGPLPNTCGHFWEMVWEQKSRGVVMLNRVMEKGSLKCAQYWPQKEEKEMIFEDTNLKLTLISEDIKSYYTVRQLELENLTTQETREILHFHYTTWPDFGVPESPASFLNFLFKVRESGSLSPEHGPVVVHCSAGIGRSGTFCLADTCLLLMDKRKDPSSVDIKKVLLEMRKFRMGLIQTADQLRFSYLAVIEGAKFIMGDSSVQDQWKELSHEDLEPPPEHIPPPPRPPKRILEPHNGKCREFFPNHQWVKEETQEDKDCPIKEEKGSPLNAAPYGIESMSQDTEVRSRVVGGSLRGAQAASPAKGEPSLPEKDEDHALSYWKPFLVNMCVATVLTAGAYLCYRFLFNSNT
Description: Inhibition of PTP1B (unknown origin).
`CC(C)=CCc1c(O)ccc2c1O/C(=C\c1ccc(O)cc1)C2=O` gave an IC50 of 11.3 µM.
